This is an account of results in US20100160266A1, “ORGANIC COMPOUNDS” (NABRIVA TH[…], priority 2005, published 2010).

This test relates to anaerobic bacteria. As to the kind of experiment: in vitro acne assays: MIC by agar dilution technique on Wilkins-Chalgren Agar (NCCLS guidelines). The test is classed as cell-based. As to conditions: compared with the same pleuromutilin in the form of a hydrochloride. As for the experimental part: E.g. in commercially available in vitro acne assays (the determination of the minimal inhibitory concentration (MIC) is performed according to the approved NCCLS guidelines^1) by agar dilution technique on Wilkins-Chalgren Agar—1) National committee for clinical laboratory standards. Methods for Antimicrobial susceptibility testing of anaerobic bacteria. 1993.
In general terms: In agar dilution, organisms are placed on agar that contains the substance at set levels.

Structures are written as SMILES.

`C=CC1(C)CC(OC(=O)CSC2CCCN(C(=O)C(N)C(C)C)C2)C2(C)C(C)CCC3(CCC(=O)C32)C(C)C1O` [Example 1, 14-O—[(N—((R)-Valyl)-piperidine-3(S)-yl)-sulfanylacetyl)-mutilin]: the “activity in in vitro acne assays (minimal inhibitory concentration, MIC)” value is given as “remarkably better activity”.
